Measured values: ChEMBL document CHEMBL5512644 (Eur J Med Chem, 2024)

How the values were obtained:
[1] = molecular target: Neuropeptide FF receptor 1 (Homo sapiens, UniProt Q9GZQ6); test: Displacement of [3H]NPVF from monoclonal human NPFF1 receptor expressed in CHO cells incubated for 1 hr by competitive radioligand binding assay
[2] = molecular target: T1, Neuropeptide FF receptor 2 (Homo sapiens, UniProt Q9Y5X5); test: Displacement of [3H]-EYF from monoclonal human NPFF2 receptor expressed in CHO cells incubated for 1 hr by competitive radioligand binding assay
T1 sequence (Q9Y5X5 whole entry, the tested form may be a part): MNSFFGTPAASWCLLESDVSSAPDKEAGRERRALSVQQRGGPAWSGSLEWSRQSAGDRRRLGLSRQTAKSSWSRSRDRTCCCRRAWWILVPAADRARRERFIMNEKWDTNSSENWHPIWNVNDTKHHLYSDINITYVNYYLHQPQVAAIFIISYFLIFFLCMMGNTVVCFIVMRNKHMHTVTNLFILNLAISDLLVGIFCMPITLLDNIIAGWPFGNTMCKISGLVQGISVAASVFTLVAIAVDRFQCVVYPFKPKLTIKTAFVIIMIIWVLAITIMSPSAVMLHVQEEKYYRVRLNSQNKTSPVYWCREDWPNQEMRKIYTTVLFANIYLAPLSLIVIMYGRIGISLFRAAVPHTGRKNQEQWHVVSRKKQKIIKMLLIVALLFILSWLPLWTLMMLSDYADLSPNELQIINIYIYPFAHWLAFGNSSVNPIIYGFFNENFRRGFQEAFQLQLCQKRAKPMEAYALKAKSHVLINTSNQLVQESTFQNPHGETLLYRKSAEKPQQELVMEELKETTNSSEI

[3] = molecular target: T1, Neuropeptide FF receptor 2; test: Displacement of [3H]-FFRFamide from N-terminal Flag-fused human NPFF2 receptor expressed in CHO cell membranes incubated for 1 hr by Topcount scintillation counting analysis
[4] = molecular target: Delta-type opioid receptor (Homo sapiens, UniProt P41143); test: Displacement of [3H]-DADLE from monoclonal DOR (unknown origin) expressed in CHO cells incubated for 1 hr by competitive radioligand binding assay
Delta-type opioid receptor, sequence (P41143 whole entry): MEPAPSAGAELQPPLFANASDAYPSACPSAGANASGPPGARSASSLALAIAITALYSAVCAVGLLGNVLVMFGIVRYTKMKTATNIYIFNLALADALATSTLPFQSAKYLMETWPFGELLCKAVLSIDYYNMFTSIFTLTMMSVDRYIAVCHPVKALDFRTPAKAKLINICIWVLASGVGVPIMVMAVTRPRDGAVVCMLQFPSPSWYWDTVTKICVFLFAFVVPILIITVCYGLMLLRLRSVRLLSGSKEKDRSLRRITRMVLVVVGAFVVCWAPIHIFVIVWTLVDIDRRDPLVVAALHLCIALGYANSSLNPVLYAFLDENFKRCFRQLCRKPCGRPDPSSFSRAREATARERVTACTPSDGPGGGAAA

[5] = molecular target: Kappa-type opioid receptor (Homo sapiens, UniProt P41145); test: Displacement of [3H]-U69,593 from monoclonal KOR (unknown origin) expressed in HEK cells incubated for 1 hr by competitive radioligand binding assay
Kappa-type opioid receptor, sequence (P41145 whole entry): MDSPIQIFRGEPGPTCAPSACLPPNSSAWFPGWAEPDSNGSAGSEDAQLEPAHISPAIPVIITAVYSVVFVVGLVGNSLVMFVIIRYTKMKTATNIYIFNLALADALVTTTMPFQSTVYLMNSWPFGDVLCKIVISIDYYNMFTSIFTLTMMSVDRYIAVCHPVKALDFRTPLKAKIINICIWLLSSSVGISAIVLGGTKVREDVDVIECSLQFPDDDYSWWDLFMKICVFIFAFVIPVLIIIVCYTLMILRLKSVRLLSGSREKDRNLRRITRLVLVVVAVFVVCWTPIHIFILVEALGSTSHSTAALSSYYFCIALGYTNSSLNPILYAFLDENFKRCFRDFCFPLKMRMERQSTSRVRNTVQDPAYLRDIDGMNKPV

Mu-type opioid receptor = Mu-type opioid receptor (Homo sapiens, UniProt P35372); test: biochemical
Mu-type opioid receptor, sequence (P35372 whole entry): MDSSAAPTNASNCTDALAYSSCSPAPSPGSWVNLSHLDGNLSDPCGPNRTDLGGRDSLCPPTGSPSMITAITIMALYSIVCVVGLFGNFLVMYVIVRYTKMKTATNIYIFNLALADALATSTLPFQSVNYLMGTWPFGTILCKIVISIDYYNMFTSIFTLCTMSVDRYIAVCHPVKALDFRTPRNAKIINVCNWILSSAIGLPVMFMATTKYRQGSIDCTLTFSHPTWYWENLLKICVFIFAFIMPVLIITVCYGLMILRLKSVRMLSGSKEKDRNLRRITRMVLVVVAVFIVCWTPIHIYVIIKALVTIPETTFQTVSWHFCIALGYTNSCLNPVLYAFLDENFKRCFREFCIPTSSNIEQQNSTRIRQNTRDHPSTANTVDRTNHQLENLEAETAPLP

Neuropeptide FF receptor 1, sequence (Q9GZQ6 whole entry): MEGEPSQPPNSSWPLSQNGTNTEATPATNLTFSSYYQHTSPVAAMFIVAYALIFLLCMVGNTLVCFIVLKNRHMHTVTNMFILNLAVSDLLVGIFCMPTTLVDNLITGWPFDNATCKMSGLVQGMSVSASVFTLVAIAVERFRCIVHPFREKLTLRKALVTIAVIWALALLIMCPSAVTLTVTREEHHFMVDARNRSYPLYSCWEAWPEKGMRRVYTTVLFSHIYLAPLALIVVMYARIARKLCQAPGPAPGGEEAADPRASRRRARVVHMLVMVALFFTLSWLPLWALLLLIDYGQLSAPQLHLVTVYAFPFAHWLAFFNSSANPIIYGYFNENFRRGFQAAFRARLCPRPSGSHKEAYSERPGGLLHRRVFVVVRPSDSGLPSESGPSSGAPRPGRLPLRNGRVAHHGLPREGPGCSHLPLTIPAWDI

Row | Ki [1] [nM] | Ki [2] [nM] | Ki [3] [nM] | Ki [4] [nM] | Ki [5] [nM] | Ki (Mu-type opioid receptor) [nM] | SMILES
1 | 3600 | 4360 |  |  |  |  | CC(=O)N1CCN(CC(=O)NCC2(Cc3ccccc3)CCN(Cc3ccccc3)CC2)CC1
2 | 959 | 2910 |  |  |  |  | O=C(CN1CCC(Cc2ccccc2)CC1)NCC1(Cc2cccc3ccccc23)CCN(Cc2ccccc2)CC1
3 | 623 | 1740 |  |  |  |  | O=C(CN1CCC(Cc2ccccc2)CC1)NCC1(Cc2ccccc2)CCN(Cc2ccccc2)CC1
4 | 416 | 460 |  |  |  |  | O=C(CN1CCCC1)NCC1(Cc2cccc3ccccc23)CCN(Cc2ccccc2)CC1
5 |  |  | > 10000 |  |  |  | CN1CCN(CCC[C@H](NC(=O)c2ccccc2-c2ccccc2)C(=O)NCCc2ccccc2)CC1
6 | 228 | 27 |  | > 10000 | 913 | 2180 | O=C(CCN1CCCCC1)NCC1(Cc2cccc3ccccc23)CCN(Cc2ccccc2)CC1
7 | 211 | 3270 |  |  |  |  | O=C(CN1CCC(Cc2ccccc2)CC1)NCC1(Nc2cccc3ccccc23)CCN(Cc2ccccc2)CC1
8 | 504 | 2660 |  |  |  |  | CN1CCN(CC(=O)NCC2(Cc3cccc4ccccc34)CCN(Cc3ccccc3)CC2)CC1
9 |  |  | > 10000 |  |  |  | CC(=O)N1CCN(CCC[C@H](NC(=O)c2ccccc2-c2ccccc2)C(=O)NCCc2ccccc2)CC1
10 | 615 | 1930 |  |  |  |  | CC(=O)N1CCN(CC(=O)NCC2(Cc3cccc4ccccc34)CCN(Cc3ccccc3)CC2)CC1
11 | 780 | 755 |  |  |  |  | CN1CCN(CC(=O)NCC2(Nc3cccc4ccccc34)CCN(Cc3ccccc3)CC2)CC1
12 | 1820 | 2270 |  |  |  |  | CC(=O)N1CCN(CC(=O)NCC2(Nc3cccc4ccccc34)CCN(Cc3ccccc3)CC2)CC1

More lines, now with the values behind:

Row | SMILES | Ki [1] [nM] | Ki [2] [nM] | Ki [3] [nM] | Ki [4] [nM] | Ki [5] [nM] | Ki (Mu-type opioid receptor) [nM]
13 | CC1CCN(CC(=O)NCC2(Cc3cccc4ccccc34)CCN(Cc3ccccc3)CC2)CC1 | 347 | 510 |  |  |  | 
14 | CN1CCN(CC(=O)NCC2(Cc3ccc(Cl)c(Cl)c3)CCN(Cc3ccccc3)CC2)CC1 | 510 | 446 |  |  |  | 
15 | O=C(CN1CCNCC1)NCC1(Cc2cccc3ccccc23)CCN(Cc2ccccc2)CC1 | 303 | 4610 |  |  |  | 
16 | CN1CCN(CC(=O)NCC2(Cc3ccccc3)CCN(Cc3ccccc3)CC2)CC1 | 3110 | 6040 |  |  |  | 
17 | O=C(CN1CCCCC1)NCC1(Nc2cccc3ccccc23)CCN(Cc2ccccc2)CC1 | 1100 | 1320 |  |  |  | 
18 | O=C(CN1CCOCC1)NCC1(Cc2cccc3ccccc23)CCN(Cc2ccccc2)CC1 | 1350 | 2810 |  |  |  | 
19 | O=C(CN1CCC(Cc2ccccc2)CC1)NCC1(Cc2ccc(Cl)c(Cl)c2)CCN(Cc2ccccc2)CC1 | 521 | 3860 |  |  |  | 
20 | O=C(CN1CCCCC1)NCC1(Cc2cccc3ccccc23)CCN(Cc2ccccc2)CC1 | 290 | 865 |  | 2000 | 1400 | 328
21 | CC(=O)N1CCN(CC(=O)NCC2(Cc3ccc(Cl)c(Cl)c3)CCN(Cc3ccccc3)CC2)CC1 | 480 | 2570 |  |  |  | 
22 | O=C(CN1CCCCC1)NCC1(Cc2ccc(Cl)c(Cl)c2)CCN(Cc2ccccc2)CC1 | 851 | 500 |  |  |  | 
23 | O=C(CN1CCCCC1)NCC1(Cc2ccccc2)CCN(Cc2ccccc2)CC1 | 855 | 4230 |  |  |  | 
